Values quoted from earlier work, collected in patent US9309575B2, “Mutant strains of Escherichia coli, a method of testing potential antibacterial agents using said strains as well as a testing kit” (Instytut Biologii Doswiadczalnej IM. M. Nenckiego Pan, priority 2010, dated 2016).

Tested on: gram-negative bacteria
Conditions: at concentrations of 1-10 μg/ml

In the case of polymyxin B nonapeptide [PMBN], the biocidal properties is listed as “does not exhibit biocidal properties”.
